In paper PMC9739695, “Water-Soluble Salts Based on Benzofuroxan Derivatives—Synthesis and Biological Activity” (International Journal of Molecular Sciences, 2022):
Where two headings read alike, the source gives them in different places.

Legend:
barley seeds = assay: Pre-sowing seed treatment, sowing qualities of barley seeds; format: in vivo; conditions: for germination energy / laboratory germination: control 95.2
wheat seeds = assay: Pre-sowing seed treatment, sowing qualities of wheat seeds; format: in vivo; conditions: for germination energy: control 82; for laboratory germination: control 85.7
alfalfa seeds = assay: Pre-sowing seed treatment, sowing qualities of alfalfa seeds; format: in vivo; conditions: control 76
rice seeds = assay: Pre-sowing seed treatment, sowing qualities of rice seeds; format: in vivo; conditions: for germination energy: control 71.4; for laboratory germination: control 95.2
BDF1 mice = assay: Acute toxicity, single intraperitoneal administration; format: in vivo
Procedure: To determine LD50, a curve of increasing toxicity was built with increasing dose, based on which the following parameters were additionally determined: MTD, LD16, LD84 and LD100.
In the experiment, clinically healthy animals were used, which were kept in the same conditions with a 12-h light and free access to water and food. Each experimental group included six animals. […] Control animals received 0.9% NaCl solution. Animals were monitored continuously for 4 h on the first day after administration of the test compounds. […] Calculation of toxic doses was performed using probit analysis.

[1] = tested on: glycolysis in SH-SY5Y cells; assay: Glycolysis stress test (ECAR, Seahorse XF96e); format: cell-based, Human; conditions: 100 µM, compared with control samples
Procedure: Using the cell metabolism analyzer Agilent Seahorse XF96e Analyzer (Seahorse Bioscience, North Billerica, MA, USA), the rate of extracellular acidification of the medium (ECAR) in cells of tumor origin SH-SY5Y was evaluated as a glycolysis measure.
The ability of compounds to suppress anaerobic glycolysis was studied using the Agilent Seahorse XF96e Analyzer (Seahorse Bioscience, North Billerica, MA, USA) by the level of hydrogen proton production in the studied samples on cell lines of neuroblastoma SH-SY5Y using a glycolysis stress test [62]. The rate of extracellular acidification of the medium was measured in real time, which made it possible to assess the intensity of glycolysis in cells by fixing the three main parameters of the glycolytic function: basal glycolysis, glycolytic capacity, and glycolytic reserve.
SH-SY5Y cells in the exponential growth phase were seeded in a 96-well Seahorse cell culture microplate. The planting density of the cell culture was 2 × 10^4/well. […]
The test compounds were added from port A at a concentration of 100 μM. To determine the effect of test compounds on basal glycolysis of neoplastic cells, 10 mM glucose was added from port B. The maximum glycolytic capacity was assessed by injecting oligomycin at a concentration of 1 μM from port C. […]

sorghum seeds = assay: Pre-sowing seed treatment, sowing qualities of sorghum seeds; format: in vivo; conditions: for germination energy: control 52.3; for laboratory germination: control 57
Hep-2 (larynx carcinoma) = assay: Cell viability, MTT test; format: cell-based; conditions: Homo sapiens, read-out: IC50 (concentration causing 50% inhibition of cell population growth)
[2] = tested on: A549 (adenocarcinomic human alveolar basal epithelial cells); assay: Cell viability, MTT test; format: cell-based; conditions: read-out: IC50 (concentration causing 50% inhibition of cell population growth)
HeLa (cervical tumor) = assay: Cell viability, MTT test; format: cell-based; conditions: Homo sapiens, read-out: IC50 (concentration causing 50% inhibition of cell population growth)
[3] = single intraperitoneal administration, doses given in mg/kg, probit analysis

O=[N+]([O-])c1c(Cl)cc2c(no[n+]2[O-])c1NCCCN1CCOCC1 [4e, 6-chloro-4-(3-(morpholino-4-ium)propylamino)-5-nitrobenzo[c][1,2,5]oxadiazole 1-oxide chloride]
germination energy (barley seeds; 10 mmol): 85.7%
laboratory germination (barley seeds; 10 mmol): 85.7%
sowing qualities of seeds compared with control (barley seeds; 20 mmol): higher than control
germination energy (barley seeds; 20 mmol): 96%
laboratory germination (barley seeds; 20 mmol): 98%
germination energy (barley seeds; 40 mmol): 94%
laboratory germination (barley seeds; 40 mmol): 99%
germination energy (wheat seeds; 10 mmol): 33.3%
laboratory germination (wheat seeds; 10 mmol): 42.8%
sowing qualities of seeds compared with control (wheat seeds; 20 mmol): higher than in the case of controls
germination energy (wheat seeds; 20 mmol): 97%
laboratory germination (wheat seeds; 20 mmol): 97.5%
sowing qualities of seeds compared with control (wheat seeds; 40 mmol): higher than in the case of controls
germination energy (wheat seeds; 40 mmol): 98%
laboratory germination (wheat seeds; 40 mmol): 99%
germination energy (alfalfa seeds; 10 mmol): 46.6%
laboratory germination (alfalfa seeds; 10 mmol): 46.6%
germination energy (alfalfa seeds; 20 mmol): 78.5%
laboratory germination (alfalfa seeds; 20 mmol): 79.5%
germination energy (alfalfa seeds; 40 mmol): 73%
laboratory germination (alfalfa seeds; 40 mmol): 74%
germination energy (rice seeds; 10 mmol): 38%
laboratory germination (rice seeds; 10 mmol): 38%
sowing qualities of seeds compared with control (rice seeds; 20 mmol): better results than the control
germination energy (rice seeds; 20 mmol): 98.5%
laboratory germination (rice seeds; 20 mmol): 99%
sowing qualities of seeds compared with control (rice seeds; 40 mmol): better results than the control
germination energy (rice seeds; 40 mmol): 99%
laboratory germination (rice seeds; 40 mmol): 99%
toxicity class from acute toxicity study (BDF1 mice; single i.p.): highly toxic
Body Weight (BDF1 mice; single i.p. 10 mg/kg, 0 Day, control 21.55 ± 0.28): 20.25 ± 0.39 g
Body Weight (BDF1 mice; single i.p. 10 mg/kg, 1 Day, control 21.43 ± 0.56): 20.39 ± 0.47 g
Body Weight (BDF1 mice; single i.p. 10 mg/kg, 2 Days, control 21.67 ± 0.77): 20.51 ± 0.40 g
Body Weight (BDF1 mice; single i.p. 10 mg/kg, 3 Days, control 21.99 ± 0.79): 20.88 ± 0.31 g
Body Weight (BDF1 mice; single i.p. 10 mg/kg, 7 Days, control 22.80 ± 0.44): 21.58 ± 0.51 g
Body Weight (BDF1 mice; single i.p. 10 mg/kg, 14 Days, control 23.96 ± 0.68): 22.12 ± 0.62 g
Body Weight (BDF1 mice; single i.p. 15 mg/kg, 0 Day, control 21.55 ± 0.28): 21.48 ± 0.47 g
Body Weight (BDF1 mice; single i.p. 15 mg/kg, 1 Day, control 21.43 ± 0.56): 21.45 ± 0.51 g
Body Weight (BDF1 mice; single i.p. 15 mg/kg, 2 Days, control 21.67 ± 0.77): 21.56 ± 0.49 g
Body Weight (BDF1 mice; single i.p. 15 mg/kg, 3 Days, control 21.99 ± 0.79): 21.62 ± 0.59 g
Body Weight (BDF1 mice; single i.p. 15 mg/kg, 7 Days, control 22.80 ± 0.44): 22.02 ± 0.47 g
Body Weight (BDF1 mice; single i.p. 15 mg/kg, 14 Days, control 23.96 ± 0.68): 22.66 ± 0.38 g
Body Weight (BDF1 mice; single i.p. 20 mg/kg, 0 Day, control 21.55 ± 0.28): 21.45 ± 0.52 g
Body Weight (BDF1 mice; single i.p. 20 mg/kg, 1 Day, control 21.43 ± 0.56): 21.44 ± 0.71 g
Body Weight (BDF1 mice; single i.p. 20 mg/kg, 2 Days, control 21.67 ± 0.77): 21.88 ± 0.81 g
Body Weight (BDF1 mice; single i.p. 20 mg/kg, 3 Days, control 21.99 ± 0.79): 22.02 ± 0.74 g
Body Weight (BDF1 mice; single i.p. 20 mg/kg, 7 Days, control 22.80 ± 0.44): 22.74 ± 0.58 g
Body Weight (BDF1 mice; single i.p. 20 mg/kg, 14 Days, control 23.96 ± 0.68): 23.01 ± 0.65 g
Body Weight (BDF1 mice; single i.p. 25 mg/kg, 0 Day, control 21.55 ± 0.28): 22.27 ± 0.29 g
Body Weight (BDF1 mice; single i.p. 25 mg/kg, 1 Day, control 21.43 ± 0.56): 21.98 g
Body Weight (BDF1 mice; single i.p. 25 mg/kg, 2 Days, control 21.67 ± 0.77): 21.81 g
Body Weight (BDF1 mice; single i.p. 25 mg/kg, 3 Days, control 21.99 ± 0.79): 21.89 g
Body Weight (BDF1 mice; single i.p. 25 mg/kg, 7 Days, control 22.80 ± 0.44): 22.15 g
Body Weight (BDF1 mice; single i.p. 25 mg/kg, 14 Days, control 23.96 ± 0.68): 22.74 g
Body Weight (BDF1 mice; single i.p. 30 mg/kg, 0 Day, control 21.55 ± 0.28): 21.92 ± 0.13 g
time after administration at which death of animals began (BDF1 mice; single i.p., doses of 15–30 mg/kg): 5 to 30 min
LD100 (BDF1 mice; single intraperitoneal administration, doses given in mg/kg): 30
LD16 (BDF1 mice; [3]): 18.2
LD84 (BDF1 mice; [3]): 24.6
suppression of glycolytic function parameters [1]: 60%
germination energy (sorghum seeds; 10 mmol): 33.3%
laboratory germination (sorghum seeds; 10 mmol): 63.3%
germination energy (sorghum seeds; 20 mmol): 50.5%
laboratory germination (sorghum seeds; 20 mmol): 56%
germination energy (sorghum seeds; 40 mmol): 50.5%
laboratory germination (sorghum seeds; 40 mmol): 52.5%
IC50 (Hep-2 (larynx carcinoma); HEp-2, 24 h): 83 ± 1.37 µM
IC50 (Hep-2 (larynx carcinoma); HEp-2, 72 h): 70.21 ± 0.54 µM
IC50 ([2]; A549, 24 h): 90.2 ± 3.43 µM
IC50 ([2]; A549, 72 h): 77.1 ± 1.36 µM
IC50 (HeLa (cervical tumor); 24 h): > 100 µM
IC50 (HeLa (cervical tumor); 72 h): 93.8 ± 2.53 µM
